Results as given in patent US20030022864A1, “9-[(5-dihydroxyboryl)-pentyl] purines, useful as an inhibitor of inflammatory cytokines” (priority 2001, published 2003).

How the values were obtained:
[1] = test system: TNF-α production by human monocytes; assay: Assay for inhibition of TNF-α production by human monocytes; format: cell-based; settings: 100 ng/ml LPS, 16 hours, ELISA, read-out: IC50 Against TNF-α
Experimental: Assay for inhibition of TNF-α production by human monocytes
Monocytes were prepared by centrifugal counterflow elutriation from PBMC obtained from leukophoresis of normal volunteers (leukopaks) at the Phoresis laboratory located at Duke University Hospital, Durham, N.C., United States of America. PBMC from leukopaks were diluted in sterile isotonic saline/10 mM HEPES (N-[2-Hydroxyethyl]piperazine-N′-[2-ethanesulfonic acid]), the name of a buffer used in biological and protein chemistry) and placed into 50 ml conical polypropylene tubes in 30 ml aliquots. Each aliquot of diluted PBMC is underlaid with 20-25 ml of sterile lymphocyte separation medium (LSM; Organon-Technika, Durham, N.C., United States of America). The tubes were centrifuged at 400× gravity for 40 minutes at room temperature. The mononuclear cells at the interface were resuspended in phosphate buffered saline (PBS) and then separated, using a Beckman elutriator, into lymphocytes and monocytes. Yields of 10^9 monocytes with greater than 90% purity were routinely obtained.
Purified monocytes prepared as described above were suspended at 4×10^6 cells/ml in complete medium. Complete medium is defined as follows: RPMI-1640 supplemented with 100 U/ml penicillin; 100 μg/ml streptomycin; 2 mM L-glutamine; 1 mM Na pyruvate; 1% MEM non-essential amino acids; 25 mM HEPES (all from GIBCO, Gaithersburg, Md., United States of America); and 5% pooled, heat-inactivated (56° C., 30 minutes) human serum from type AB blood (Pel-Freez, Brown Deer, Wis., United States of America). To each well of a 48-well flat bottomed tissue culture plate was added 0.125 ml of cell suspension. Test materials (diluted in complete medium at 2× the desired final concentration) were added in […] to each well. Control wells received 250 μl of complete medium. All samples were tested at a minimum of 4 concentrations in the presence or absence of 100 ng/ml LPS (S. typhosa; Sigma, St. Louis, Mo., United States of America; 125 μl of 4× desired final concentration added) and incubated at 37° C. in humidified 5% CO2 for 16 hours. At this time, culture supernatants were aspirated off and the unattached cells and cell debris removed by a 2 minute spin in a microcentrifuge at 10,000× gravity. The release of TNF-α was determined in the cell-free supernatants using an ELISA capture assay.

[2] = cited from earlier work
[3] = biological target: T1, biologically-active TNF-α (Homo sapiens, UniProt P01375); settings: heart failure patients; cited from earlier work
T1 construct: host or cells: serum of heart-failure patients

[4] = test system: rats with permanent occlusion of the middle cerebral artery; settings: systemic administration, 10 mg/kg 1 hour post ischemia; compared with vehicle controls; cited from earlier work
[5] = 400 mg 3 times daily, 6 months; placebo 26.8%, p=0.04; cited from earlier work
[6] = two weeks after a single infusion; cited from earlier work
CCR4 mRNA = assay: Expression of C-C chemokine receptor mRNA in normal human PBMC by RT-PCR: CCR4; format: cell-based; settings: unstimulated human PBMC, FIG. 6
Experimental: (§1) The ability of LMP-420 to affect the expression of C-C chemokine receptors on normal human PBMC was tested as illustrated in FIG. 6. […] There was no effect on CCR4, the only other C-C chemokine receptor whose mRNA could be detected in these unstimulated human PBMC. Also, there was no effect on the mRNA for GAPDH which is used as a “housekeeping gene” to verify that equal amounts of mRNA are being reversed transcribed for the analysis. Thus, the ability of LMP-420 to inhibit the expression of CCR1 might contribute to antiinflammatory properties of LMP-420, as well as its ability to inhibit HIV-1 replication.

[7] = test system: nitric oxide production by murine macrophage cell line J774.1; assay: Nitric oxide production by a murine macrophage cell line (J774.1), nitrate/nitrite by Griess reagent; format: cell-based; settings: FIG. 2
Experimental: (§2) Assay for inhibition of TNF-α or nitric oxide (NO) by a murine macrophage cell line
(§3) Murine macrophage cell line J774.1 cells were maintained by culture at 37° C. in 5% humidified CO2 in media that was […] (DMEM) supplemented with 100 U/ml penicillin; 100 μg/ml streptomycin; 2 mM L-glutamine; 1 mM Na pyruvate; 1% MEM non-essential amino acids; 25 mM HEPES (all from GIBCO, Gaithersburg, Md., United States of America); and 10% pooled, heat-inactivated (56° C., 30 minutes) fetal bovine serum (FBS; GIBCO). For assays of TNF-α and nitric oxide production, cells were cultured at 1×10^5 cells/well in 96-well tissue culture plates. Test compound was prepared as a stock solution in DMSO and added to each well to give the desired final concentration. DMSO was added to control wells to serve as a vehicle control. Each concentration of test material or vehicle control was tested in replicates of 4 wells. After a 1 hour exposure to test material, a stimulus (either SAK2 stimulatory oligonucleotide [10 μg] or LPS [10 ng/ml]+IFNγ[100 u/ml]) was added to each well, and the plates incubated for 48 hours at 37° C. in 5% humidified CO2. […] Content of nitrite/nitrate in J774.1 cell culture supernatants was expressed as μM.

mRNA encoding for CCR1 = assay: Expression of C-C chemokine receptor mRNA in normal human PBMC by RT-PCR: CCR1; format: cell-based; settings: FIG. 6
Experimental: as §1

[8] = test system: TNF-α production by murine macrophage cell line J774.1; assay: Inhibition of TNF-α production by a murine macrophage cell line (J774.1); format: cell-based; settings: FIG. 1; read-out: IC50, production of TNF-α by cultured murine macrophage cell line
Experimental: as §2, §3

mRNA for GAPDH = assay: Housekeeping gene mRNA in normal human PBMC by RT-PCR: GAPDH; format: cell-based; settings: FIG. 6
Experimental: as §1

T1 sequence (P01375 77-233 limits assumed): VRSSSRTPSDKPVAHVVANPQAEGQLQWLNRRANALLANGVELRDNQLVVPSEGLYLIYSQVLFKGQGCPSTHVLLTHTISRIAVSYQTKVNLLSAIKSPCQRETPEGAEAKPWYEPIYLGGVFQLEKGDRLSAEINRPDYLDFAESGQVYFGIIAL

In the case of `Nc1nc(Cl)c2ncn(CCCCO)c2n1` [Comparison Compound 6], the IC50 [1] is reported as > 50000 nM.

In the case of `Nc1nc(Cl)c2ncn(CCCC(=O)O)c2n1` [Comparison Compound 13], the IC50 [1] is reported as > 20000 nM.

With `CCOC(=O)CCCn1cnc2c(Cl)nc(N)nc21` [Comparison Compound 14] the IC50 [1] was > 20000 nM.

For ENBREL, the “patients who achieved the ARC20” value ([2]; 12 weeks, placebo 13%) is listed as 73%, the “patients who met the PsARC” value ([2]; 12 weeks, placebo 23%) is listed as 87% and the “patients who achieved a 75% improvement in the PASI” value ([2]; 19 assessable patients per group, placebo 0, p=0.015) is listed as 26%. The “median target lesions (improvement)” value ([2]; placebo 0%) was 50%, the “median PASI improvement” value ([2]; placebo 9%) was 46% and the “decrease in serum levels of biologically-active TNF-α” value [3] was 85%.

In the case of `C/C(=N\N=C(N)N)c1cc(NC(=O)CCCCCCCCC(=O)Nc2cc(/C(C)=N/N=C(N)N)cc(/C(C)=N/N=C(N)N)c2)cc(/C(C)=N/N=C(N)N)c1.Cl.Cl.Cl.Cl` [CNI-1493], the reduced infarct volume [4] is listed as 80%.

In the case of `CC(=O)CCCCn1c(=O)c2c(ncn2C)n(C)c1=O` [Pentoxifylline], the “left ventricular ejection fraction (LVEF)” value [5] is given as 38.7%.

In the case of “REMICADE: humanized murine monoclonal antibody to TNF-α”, the “patient's psoriasis” value [6] is listed as “dramatically cleared up”.

For `Nc1nc(Cl)c2ncn(CCCCCB(O)O)c2n1` [LMP-420, 2-amino-6-chloro-9-[(5-dihydroxyboryl)-pentyl] purine], the “effect on CCR4 mRNA” value (CCR4 mRNA) was “no effect”, the “effect on the production of nitric oxide as measured by the release of nitrate or nitrite” value [7] was “no effect” and the “expression of mRNA encoding for CCR1” value (mRNA encoding for CCR1) was “dose-dependent inhibition”. For the same molecule, the IC50 [8] was ~1000 nM, the “effect on the mRNA for GAPDH” value (mRNA for GAPDH) was “no effect” and the IC50 [1] was 80 nM.
